Usually solubility stands for the dissolved amount per volume that the medium holds. For orientation: inhibition means the percentage by which the read-out fell short of the control.

Structures are written as SMILES.

Sequence of PI-3 kinase γ (P48736 whole entry): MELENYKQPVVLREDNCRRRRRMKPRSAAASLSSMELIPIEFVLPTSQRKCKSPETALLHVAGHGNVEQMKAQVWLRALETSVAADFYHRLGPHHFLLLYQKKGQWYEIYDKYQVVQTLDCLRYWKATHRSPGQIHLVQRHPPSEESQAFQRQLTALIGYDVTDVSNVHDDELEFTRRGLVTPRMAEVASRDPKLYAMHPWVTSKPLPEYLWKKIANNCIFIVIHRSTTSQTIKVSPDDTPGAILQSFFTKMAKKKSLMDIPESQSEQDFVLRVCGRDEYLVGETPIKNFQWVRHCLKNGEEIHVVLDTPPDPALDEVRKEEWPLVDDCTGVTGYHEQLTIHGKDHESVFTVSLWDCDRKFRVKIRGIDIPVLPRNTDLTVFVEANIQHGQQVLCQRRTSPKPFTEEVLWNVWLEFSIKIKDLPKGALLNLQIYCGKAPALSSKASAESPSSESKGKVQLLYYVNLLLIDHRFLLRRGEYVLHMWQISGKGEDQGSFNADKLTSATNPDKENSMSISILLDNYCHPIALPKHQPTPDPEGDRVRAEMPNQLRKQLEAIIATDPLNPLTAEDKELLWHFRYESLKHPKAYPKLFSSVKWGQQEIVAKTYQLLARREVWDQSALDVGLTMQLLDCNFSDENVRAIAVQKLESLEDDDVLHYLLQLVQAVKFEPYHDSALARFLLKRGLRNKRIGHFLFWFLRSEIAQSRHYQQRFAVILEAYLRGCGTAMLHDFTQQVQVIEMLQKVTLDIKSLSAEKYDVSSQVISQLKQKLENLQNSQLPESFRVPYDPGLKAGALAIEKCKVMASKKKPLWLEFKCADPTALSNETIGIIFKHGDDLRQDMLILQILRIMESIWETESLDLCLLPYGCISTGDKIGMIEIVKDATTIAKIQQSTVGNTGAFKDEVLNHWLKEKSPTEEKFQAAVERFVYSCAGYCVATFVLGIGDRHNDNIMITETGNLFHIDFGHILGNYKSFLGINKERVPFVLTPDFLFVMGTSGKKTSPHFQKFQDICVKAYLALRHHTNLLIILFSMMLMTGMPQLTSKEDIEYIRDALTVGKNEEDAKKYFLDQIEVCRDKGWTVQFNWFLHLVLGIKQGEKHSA

Test system in the first series: not listed separately
Briefly: Solubility test. It is filed as physicochemical. Particulars: kinetic from dmso stock; artificial intestinal juice pH 6.8, 1% DMSO, 25° C. for 16 hours. Here is the method: The solubility of a compound was determined under a condition in which 1% DMSO was added. 10 mmol/L compound solution was prepared using DMSO, and then 6 μL of the compound solution was added to 594 μL of artificial intestinal juice in pH 6.8 (to 250 mL of 0.2 mol/L potassium dihydrogen phosphate reagent solution was added 118 mL of 0.2 mol/L NaOH reagent solution and water to provide a final volume of 1000 mL). After standing at 25° C. for 16 hours, the mixed solution was filtered with suction. The filtrate was diluted twice with methanol/water (1/1), and then a concentration in the filtration was measured with HPLC or LC/MS/MS by the absolute calibration method.
For the compound `CNC(=O)Nc1cc2n(n1)CCN2c1cccc(OC)c1` [Compound I-61], the solubility at 16 h was over 50 µM.

For the compound `CC(=O)Nc1cc2n(n1)CCN2c1ccc2c(c1)CCCN2.Cl.Cl` [Compound I-319], the solubility at 16 h is over 50 µM.

For a further series, the target named is PI-3 kinase γ (Homo sapiens, UniProt P48736). Briefly: PI3Kγ inhibitory activity, PI3-kinase HTRF assay (inhibition ratio). The settings on record: 0.5 h; PI3Kγ, compound at 10 μM. It is filed as biochemical. The essentials:
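PI3Kγ preincubated 10 min with compound and PIP2 substrate (MgCl2, DTT), then ATP added for 30 min at room temperature. PIP3 detected by HTRF (665/620 nm ratio) after 18 h. Inhibition ratio at 50 or 10 μmol/L, normalised to no-compound and no-enzyme controls.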
For orientation: TR-FRET usually uses a lanthanide donor and a delayed reading to cut background.
In the case of `COc1cc(N2CCc3nc(NC(=O)CC(=O)OC(C)(C)C)sc3C2)nc(OC)n1` [Compound I-264], the inhibition at 10 µM came to 89%. Turning to `COc1cc(N2CCc3nc(NC(=O)NCCC(=O)Nc4ccccc4)sc3C2)nc(OC)n1` [Compound I-273], the inhibition at 10 µM is at least 95%.

Still in this series, the particulars now being: 0.5 h; PI3Kγ, compound at 50 μM.
`CNC(=O)Nc1cc2n(n1)CCN2c1cccc(OC)c1` [Compound I-61]: the inhibition at 50 µM is at least 95%. The same measure, in the same setting: the same measure for `COc1cc(N2CCc3nc(NC(=O)[C@@H](O)c4ccccc4)sc3C2)nc(OC)n1` [Compound I-258]: 92%; for `COc1cc(N2CCc3nc(NC(=O)NCCC(=O)N4CCOCC4)sc3C2)nc(OC)n1` [Compound I-207]: at least 95%; for `CNC(=O)Nc1cc2n(n1)CCN2c1cccc(-c2csc(NC(=O)OC(C)(C)C)n2)c1` [Compound I-188]: 91%.

For the compound `CNC(=O)Nc1nc2c(s1)CN(c1cc(Oc3ccccc3)nc(OC)n1)CC2` [Compound I-138], the inhibition at 50 µM was at least 95%. In the case of `O=C(Nc1cc2n(n1)CCN2c1cccc(Cl)c1)c1cnco1` [Compound I-221], the inhibition at 50 µM was at least 95%. As for `CNC(=O)Nc1cc2n(n1)CCN2c1cc(Br)cc(C(=O)NC)c1` [Compound I-179], the inhibition at 50 µM is at least 95%. Turning to `CNC(=O)Nc1cc2n(n1)CCN2c1cccc(-c2cnc(C)o2)c1` [Compound I-164], the inhibition at 50 µM was at least 95%. As to `CNC(=O)Nc1nc2c(s1)CN(C(=O)OC(C)(C)C)CC2` [Compound I-66], the inhibition at 50 µM is 92%. As to `CNC(=O)Nc1cc2n(n1)CCN2c1cc(C(=O)N2CCOCC2)cc(-c2ccc(N)cc2)c1` [Compound I-210], the inhibition at 50 µM is at least 95%. As for `CNC(=O)Nc1nc2c(s1)CN(c1nccc(OC)n1)CC2` [Compound I-93], the inhibition at 50 µM stood at 92%. `CNC(=O)Nc1cc2n(n1)CCN2c1ccc(C(=O)O)c(OC)c1` [Compound I-148]: the inhibition at 50 µM is at least 95%. Take `O=C(Nc1cc2n(n1)CCN2c1cccc(Cl)c1)C1CCCC1` [Compound I-237]: the inhibition at 50 µM was 84%. Same read-out and setting: the same measure for `O=C(Nc1cc2n(n1)CCN2c1cccc(Cl)c1)c1ccc2nccn2c1` [Compound I-241]: 84%. With `CNC(=O)Nc1nc2c(s1)CN(c1cc(Cl)nc(Cl)n1)CC2` [Compound I-111], the inhibition at 50 µM was at least 95%. Regarding `O=C(O)c1cccc(C(=O)Nc2cc3n(n2)CCN3c2cccc(Cl)c2)c1` [Compound I-247], the inhibition at 50 µM was 95%. Turning to `CNC(=O)Nc1cc2n(n1)CCN2c1cccc(S(C)(=O)=O)c1` [Compound I-191], the inhibition at 50 µM is at least 95%. Regarding `CNC(=O)Nc1nc2c(s1)CN(c1cc(C(=O)NCCO)nc(Cl)n1)CC2` [Compound I-170], the inhibition at 50 µM was at least 95%. For the compound `CNC(=O)Nc1nc2c(s1)CN(c1ccnc(Cl)n1)CC2` [Compound I-94], the inhibition at 50 µM was at least 95%. Same read-out and setting: next, `CNC(=O)Nc1cc2n(n1)CCN2c1cc(Oc2ccccc2)cc(C(=O)N2CCOCC2)c1` [Compound I-223]: 91%. Turning to `CC(=O)Nc1cc2n(n1)CCN2c1ccccc1` [Compound I-140], the inhibition at 50 µM was at least 95%. For `CNC(=O)Nc1cc2n(n1)CCN2c1nc2ccccc2s1` [Compound I-115], the inhibition at 50 µM was at least 95%. As for `CCOC(=O)CNC(=O)Nc1cc2n(n1)CCN2C(=O)OC(C)(C)C` [Compound I-57], the inhibition at 50 µM is at least 95%. Take `CNC(=O)Nc1cc2n(n1)CCN2c1cccnc1` [Compound I-80]: the inhibition at 50 µM was at least 95%. On the same count and under the same terms, the same measure for `O=C(O)CCNC(=O)Nc1cc2n(n1)CCN2c1cccc(Cl)c1` [Compound I-215]: at least 95%. For the compound `COc1cccc(C(=O)Nc2cc3n(n2)CCN3c2cccc(Cl)c2)c1` [Compound I-239], the inhibition at 50 µM came out at 92%. In the case of `CS(=O)(=O)Nc1ccc(CC(=O)Nc2cc3n(n2)CCN3c2cccc(Cl)c2)cc1` [Compound I-243], the inhibition at 50 µM is 81%. For `CNC(=O)Nc1cc2n(n1)CCN2c1cc(Br)cc(C(=O)NCCOC)c1` [Compound I-183], the inhibition at 50 µM was at least 95%. For the compound `O=C(Nc1cc2n(n1)CCN2c1cccc(Cl)c1)c1ccn[nH]1` [Compound I-246], the inhibition at 50 µM is 90%. In the case of `CNC(=O)Nc1cc2n(n1)CCN2c1ccc(C(=O)N(C)C)s1` [Compound I-226], the inhibition at 50 µM was at least 95%. On the same count and under the same terms, the same measure for `O=C(NCCC(=O)N1CCOCC1)Nc1cc2n(n1)CCN2c1cccc(Cl)c1` [Compound I-218]: at least 95%.

The series is the same for the next values; noted with them: 0.5 h; compound at 10 μmol/L.
With `CC(=O)Nc1cc2n(n1)CCN2c1ccc2c(c1)CCCN2.Cl.Cl` [Compound I-319], the inhibition at 10 µM was at least 95%. With `COc1ccc(C(=O)N2CCc3nc(NC(=O)Nc4ccccc4C(=O)NC(C)C)sc3C2)cc1` [Compound I-483], the inhibition at 10 µM was at least 95%. Turning to `CN1CCc2cc(N3CCn4nc(NC(=O)c5csc(C(=O)OC(C)(C)C)c5)cc43)ccc2C1=O` [Compound I-413], the inhibition at 10 µM was 87%. On to `COc1cc(N2CCc3nc(NC(=O)N/C(C)=C\C(=O)NC(C)(C)C)sc3C2)nc(OC)n1` [Compound I-392], for which the inhibition at 10 µM was at least 95%.

`COc1cc(N2CCc3nc(NC(=O)Nc4cccc(C(=O)OC(C)(C)C)c4)sc3C2)nc(OC)n1` [Compound I-321]: the inhibition at 10 µM came out at 95%.

Take `CN1CCc2cc(N3CCn4nc(NC(=O)c5ccc(S(C)(=O)=O)s5)cc43)ccc2C1=O` [Compound I-344]: the inhibition at 10 µM was found to be 80%. In the case of `CN1CCc2cc(N3CCn4nc(NC(=O)c5cc6cccnc6[nH]5)cc43)ccc2C1=O` [Compound I-385], the inhibition at 10 µM worked out at 91%. In the case of `CC(C)NC(=O)Nc1cccc(C(=O)Nc2cc3n(n2)CCN3c2ccc3c(c2)CCN(C)C3=O)c1` [Compound I-470], the inhibition at 10 µM came out at 79%.

Consider `COc1cc(N2CCc3nc(NC(=O)NCCC(=O)N4CCC[C@H]4C(=O)N(C)C(C)C)sc3C2)nc(OC)n1` [Compound I-313], for which the inhibition at 10 µM was found to be 89%.

As for `COc1cc(N2CCc3nc(NC(=O)NCCC(=O)N4CCC[C@H]4C(=O)N4CCCC4)sc3C2)nc(OC)n1` [Compound I-312], the inhibition at 10 µM is at least 95%.

For `COc1cc(N2CCc3nc(NC(=O)NCc4cc(Br)no4)sc3C2)nc(OC)n1` [Compound I-329], the inhibition at 10 µM worked out at 89%. `CNC(=O)Nc1cc2n(n1)CCN2c1ccc2c(c1)CCN(C)C2=O` [Compound I-336]: the inhibition at 10 µM was 89%. The same measure, in the same setting: next, `COc1cc(N2CCc3nc(NC(=O)c4ccsc4)sc3C2)nc(OC)n1` [Compound I-459]: 92%. Turning to `CN1CCc2cc(N3CCn4nc(NC(=O)c5ccccc5NC(=O)OC(C)(C)C)cc43)ccc2C1=O` [Compound I-493], the inhibition at 10 µM is 91%. Take `COc1cccc(C(=O)Nc2cc3n(n2)CCN3c2ccc3c(c2)CCN(C)C3=O)c1` [Compound I-462]: the inhibition at 10 µM is at least 95%. As to `CN1CCc2cc(N3CCn4nc(NC(=O)c5csc(C(=O)NC(C)(C)C)c5)cc43)ccc2C1=O` [Compound I-438], the inhibition at 10 µM was determined as 86%. For `COc1cc(N2CCc3nc(NC(=O)c4ccc(C)o4)sc3C2)nc(OC)n1` [Compound I-456], the inhibition at 10 µM came out at 87%.

As to `CN1CCc2cc(N3CCn4nc(NC(=O)OCc5ccccc5)cc43)ccc2C1=O` [Compound I-314], the inhibition at 10 µM is 88%.

For `CC(=O)Nc1ncc(C(=O)Nc2cc3n(n2)CCN3c2ccc3c(c2)CCN(C)C3=O)s1` [Compound I-531], the inhibition at 10 µM amounted to 75%. For `CN1CCc2cc(N3CCn4nc(NC(=O)c5ccc(S(C)(=O)=O)cc5)cc43)ccc2C1=O` [Compound I-481], the inhibition at 10 µM was 92%. For `COc1cc(N2CCc3nc(NC(=O)Nc4ccccc4Cl)sc3C2)nc(OC)n1` [Compound I-430], the inhibition at 10 µM came out at 84%. In the case of `Cc1ccsc1C(=O)Nc1cc2n(n1)CCN2c1ccc2c(c1)CCN(C)C2=O` [Compound I-444], the inhibition at 10 µM was 84%. On the same count and under the same terms, the same measure for `COc1cc(N2CCc3nc(NC(=O)Cc4ccccc4C(=O)NC(C)(C)C)sc3C2)nc(OC)n1` [Compound I-337]: 82%; for `CN1CCc2cc(N3CCn4nc(NC(=O)c5ccccc5)cc43)ccc2C1=O` [Compound I-324]: 93%; for `Cc1ccc(C(=O)N2CCc3nc(NC(=O)Nc4ccccc4C(=O)NC(C)C)sc3C2)cc1` [Compound I-515]: 85%.

Still in this series, the particulars now being: 0.5 h; compound at 50 μmol/L.
Take `CN1CCc2cc(N3CCn4nc(NC(=O)c5ccc(Br)s5)cc43)ccc2C1=O` [Compound I-365]: the inhibition at 50 µM stood at 81%. For `CN1CCc2cc(N3CCn4nc(NC(=O)C5CCCO5)cc43)ccc2C1=O` (stereo not shown) [Compound I-372], the inhibition at 50 µM is 84%. `COc1cc(N2CCc3nc(NC(=O)NC4CCC(C(C)(C)C)CC4)sc3C2)nc(OC)n1` (stereo not shown) [Compound I-290]: the inhibition at 50 µM is 88%. With `CN1CCc2cc(N3CCn4nc(NC(=O)NC5CCCC5)cc43)ccc2C1=O` [Compound I-369], the inhibition at 50 µM was at least 95%.

(Values after patent US20110230472A1, “RING-FUSED AZOLE DERIVATIVE HAVING PI3K-INHIBITING ACTIVITY” (Shionogi & Co., Ltd., priority 2008, published 2011).)
